Measured values taken from the NIST ThermoML archive (doi:10.1021/je060200b).

Test: molar heat capacity at constant pressure; xn = mol fraction of the nth substance listed
Settings: 101 kPa, Liquid

BrCCCCCBr [1,5-dibromopentane] + CCCCCCC
molar heat capacity at constant pressure [J/K/mol]
Settings | x1 = 0.1006 | x1 = 0.1994 | x1 = 0.3003 | x1 = 0.4008 | x1 = 0.5004 | x1 = 0.5999 | x1 = 0.6995 | x1 = 0.8002 | x1 = 0.899 | x1 = 1
293.15 K | 221.62 | 221.15 | 221 | 220.91 | 220.8 | 220.5 | 220.19 | 219.87 | 219.89 | 219.76
294.15 K | 221.93 | 221.54 | 221.39 | 221.29 | 221.14 | 220.66 | 220.44 | 220.16 | 220.02 | 219.98
295.15 K | 222.35 | 221.76 | 221.59 | 221.6 | 221.41 | 220.91 | 220.59 | 220.44 | 220.3 | 220.19
296.15 K | 222.62 | 222.09 | 221.89 | 221.77 | 221.59 | 221.3 | 220.81 | 220.57 | 220.61 | 220.41
297.15 K | 223.06 | 222.53 | 222.34 | 222.15 | 221.87 | 221.5 | 221.19 | 220.89 | 220.76 | 220.66
298.15 K | 223.39 | 222.84 | 222.66 | 222.48 | 222.23 | 221.68 | 221.42 | 221.11 | 221.09 | 220.84
299.15 K | 223.7 | 223.2 | 222.87 | 222.74 | 222.55 | 221.91 | 221.69 | 221.39 | 221.32 | 221.1
300.15 K | 224.16 | 223.42 | 223.3 | 222.91 | 222.69 | 222.3 | 221.83 | 221.48 | 221.55 | 221.28
301.15 K | 224.39 | 223.89 | 223.58 | 223.33 | 223.05 | 222.57 | 222.17 | 221.85 | 221.77 | 221.49
302.15 K | 224.88 | 224.24 | 223.78 | 223.52 | 223.39 | 222.87 | 222.33 | 222.09 | 221.93 | 221.73
303.15 K | 225.21 | 224.57 | 224.21 | 223.81 | 223.49 | 223.01 | 222.58 | 222.36 | 222.22 | 221.95
304.15 K | 225.49 | 224.9 | 224.44 | 224.26 | 223.94 | 223.37 | 222.93 | 222.44 | 222.36 | 222.17
305.15 K | 225.96 | 225.3 | 224.89 | 224.59 | 224.11 | 223.63 | 223.17 | 222.81 | 222.72 | 222.41
306.15 K | 226.32 | 225.5 | 225.09 | 224.8 | 224.39 | 223.91 | 223.45 | 223.05 | 222.99 | 222.63
307.15 K | 226.59 | 225.83 | 225.41 | 225.15 | 224.77 | 224.05 | 223.72 | 223.33 | 223.23 | 222.85
308.15 K | 227.03 | 226.31 | 225.84 | 225.38 | 225.09 | 224.36 | 223.89 | 223.55 | 223.34 | 223.09
309.15 K | 227.44 | 226.66 | 226.09 | 225.8 | 225.27 | 224.76 | 224.26 | 223.77 | 223.6 | 223.31
310.15 K | 227.81 | 226.87 | 226.5 | 226.12 | 225.7 | 224.95 | 224.52 | 224.04 | 223.81 | 223.56
311.15 K | 228.09 | 227.25 | 226.85 | 226.31 | 225.87 | 225.3 | 224.66 | 224.19 | 224.19 | 223.78
312.15 K | 228.59 | 227.7 | 227.09 | 226.6 | 226.24 | 225.58 | 225.06 | 224.56 | 224.44 | 224.03
313.15 K | 228.91 | 228.06 | 227.49 | 227.05 | 226.53 | 225.84 | 225.31 | 224.81 | 224.67 | 224.26
